Measured values: PubChem BioAssay (NCI)
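Five compound concentrations were applied to cells in 96-well plates for 48 hours; endpoints were derived by simple linear interpolation of the resulting dose-response curve. GI50: concentration for 50% inhibition of growth. TGI: concentration producing complete growth inhibition.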

Experiments:
Experiment in all cases: growth of human tumour cells (NCI), 48 h
[1] = system: A498 renal
[2] = system: HOP-92 NSCLC
[3] = system: MDA-MB-435
[4] = system: HCT-15 colon
[5] = system: SK-MEL-5 melanoma
[6] = system: SF-295 CNS
[7] = system: SNB-19 CNS
[8] = system: K-562 leukemia
[9] = system: OVCAR-4 ovarian
[10] = system: UACC-62 melanoma

Compound	GI50 [1] [nM]	TGI [1] [nM]	GI50 [2] [nM]	TGI [2] [nM]	GI50 [3] [nM]	TGI [3] [nM]	GI50 [4] [nM]	TGI [4] [nM]	GI50 [5] [nM]	TGI [5] [nM]	GI50 [6] [nM]	TGI [6] [nM]	GI50 [7] [nM]	TGI [7] [nM]	GI50 [8] [nM]	TGI [8] [nM]	GI50 [9] [nM]	TGI [9] [nM]	GI50 [10] [nM]	TGI [10] [nM]
CS[C@@]1(C(=O)Nc2ccc3[nH]nc(-c4ccc(OC(C)C)nc4)c3c2)CCN(CC(=O)N2CC=C(c3ccc(-c4ncn(C)n4)cc3)CC2)C1	176	641	228	1660	355	> 100000	2270	> 100000	1030	> 89900	> 27300	> 100000	> 100000	> 100000	2240	> 100000	–	–	–	–
C[C@@H](Oc1cc(-c2cnn(C3CC4(CCCNC4)C3)c2)cnc1N)c1c(Cl)ccc(F)c1Cl (stereo not given in full)	532	2530	807	3420	770	2180	1300	3160	1500	2870	247	2130	3320	14400	265	1410	1850	5560	1580	3090
N#CC[C@H](C1CCCC1)n1cc(-c2ncnc3[nH]ccc23)cn1	13300	53800	6810	> 100000	26400	> 93200	26600	> 100000	17200	49000	19400	51400	35200	> 100000	22200	> 100000	20400	> 79100	37000	> 100000
O=C(/C=C/c1cccc(B(O)O)c1)c1cccc(B(O)O)c1	1520	3500	1530	3590	1900	4880	1550	4300	1850	3830	3900	15600	2130	10400	2130	9000	3270	22200	1660	4310
CCN1C(=O)N(CC)C2C1NN=c1s/c(=C\c3ccccc3)c(=O)n12 (stereo not given)	23.8	147	29700	> 100000	31.6	109	69.2	> 100000	147	6110	66.3	> 100000	537	> 100000	50.5	> 100000	869	> 100000	59.6	> 100000
CC(C)N(C[C@H]1O[C@@H](n2cnc3c(N)ncnc32)[C@H](O)[C@@H]1O)C1CC(CCc2nc3ccc(C(C)(C)C)cc3[nH]2)C1 (stereo not given in full)	29600	> 100000	31400	> 100000	> 54700	> 100000	> 100000	> 100000	> 95100	> 100000	> 70800	> 100000	> 100000	> 100000	33400	> 75300	74100	> 100000	99700	> 100000
CCOC(=O)C(Cc1ccc(OC)cc1)C(=O)OCC	6540	21400	6930	30400	3970	18000	3770	19400	3650	15300	5000	20300	4820	17400	1830	11800	6230	26500	4660	17300
Cc1c(N2C(=O)/C(=C\c3ccc(N(C)C)cc3)N=C2c2ccccc2)c(=O)n(-c2ccccc2)n1C	> 64300	> 100000	31800	> 100000	> 100000	> 100000	> 100000	> 100000	36300	> 100000	92000	> 100000	> 100000	> 100000	40900	> 100000	39900	> 100000	> 100000	> 100000
Nc1cccc2nsnc12	–	> 100000	–	> 100000	–	> 100000	–	> 100000	–	> 100000	–	> 100000	–	> 100000	–	> 85400	–	> 100000	–	> 100000
CN1CCN(c2ccc3nc4c(nc3c2C(F)(F)F)C(=O)c2ncccc2C4=O)CC1	1940	3630	2490	5650	178	344	1190	3110	1430	2760	1270	2580	1660	5700	1430	7750	1070	2260	1050	2310
CC[C@H](C)[C@H](NC(=O)C12CC(NC(C)=O)(C1)C2)C(=O)N(C)[C@H](C[C@@H](OC(C)=O)c1nc(C(=O)N[C@@H](Cc2ccccc2)C[C@H](C)C(=O)OC)cs1)C(C)C	234	1580	> 11800	> 16700	33	501	1090	> 16700	80.7	2760	360	> 5250	607	> 16700	101	> 16700	885	> 16700	73.5	> 16700
COc1ccc(C2C3=C(COC3=O)N(CCO)c3cc4c(cc32)OCCO4)cc1OC (stereo not given)	1610	> 15600	837	> 50000	255	1780	5390	> 50000	906	> 50000	922	12000	–	> 30500	1380	> 50000	3670	> 50000	–	> 50000
O=C(Nc1ccc(S(=O)(=O)NC2CCCCCC2)cc1)C(c1ccccc1)S(=O)(=O)c1ccc(F)cc1 (stereo not given)	870	2080	845	3900	313	1430	182	2080	404	1720	349	2920	622	37200	–	–	444	4160	137	690
COc1ccc(NC(=O)O[C@H]2[C@H](O[C@H]3[C@@H](O)COC(O[C@H]4C[C@H]5[C@@H]6CC=C7C[C@@H](O)CC[C@]7(C)[C@H]6CC[C@]5(C)[C@H]4[C@H](C)C(=O)CCC(C)C)[C@@H]3OC(C)=O)OC[C@@H](O)[C@@H]2O)cc1 (stereo not given in full)	< 10	< 10	< 10	2030	< 10	62.8	73.5	1230	< 10	11.4	< 10	< 10	18.9	3360	< 10	19600	145	> 100000	< 10	< 10
N#Cc1c(Oc2ccc(F)c(NC(=O)Cc3cccc(C(F)(F)F)c3)c2)ccc2nc(NC(=O)C3CC3)sc12	224	2560	278	2190	137	> 100000	261	> 100000	206	8600	579	> 100000	828	> 100000	385	> 100000	2600	> 100000	26.2	–
C/C(=N\Nc1cccc(Cl)n1)c1ccccn1	1410	4870	1320	21100	1780	> 100000	363	> 100000	1620	4620	827	> 32300	1230	> 100000	574	> 100000	439	> 54700	1220	4930
O=C(CC1(O)C(=O)Nc2c(Cl)ccc(Cl)c21)c1ccc(C2CC2)cc1 (stereo not given)	183	754	769	14800	88.2	272	185	14300	1370	13800	440	4320	1130	16900	152	–	12800	32200	508	17400
CCN(CC)c1ccc2nc3c4ccccc4c(=NC(=O)c4ccccc4-c4c5ccc(N(CC)CC)cc5[o+]c5cc(N(CC)CC)ccc45)cc-3oc2c1	6150	23500	3510	19400	1930	4330	1420	3900	1260	2680	2960	14200	2300	6640	–	> 100000	1250	2670	5730	17900
O=C(NO)c1cnc(N2CCN(S(=O)(=O)c3ccc4ccccc4c3)CC2)nc1	28.3	220	20.2	85.7	45.6	394	69	15600	39.6	150	53.2	268	238	11800	36.3	> 40900	81	23600	37.4	220
COc1cc(/C=C/C(=O)c2ccc(Nc3nc(Nc4ccccc4)nc(Nc4ccc(Cl)cc4)n3)cc2)cc(OC)c1OC	28200	> 32500	1910	> 32500	11300	> 32500	8860	> 32500	4760	30600	7220	> 32500	> 32500	> 32500	4180	> 32500	14000	> 32500	14700	> 32500
CS(=O)(=O)c1nc(Cl)c(Cl)c(C#N)c1Cl	–	35300	–	3730	–	7000	–	3500	–	15500	–	35100	–	36000	–	20600	–	3340	–	10800
C=C(C)[C@@H]1CC[C@]2(C)[C@H](C=CC3=C4C[C@@](C)(CO)CC[C@]4(C)CC[C@]32C)[C@@]1(C)CCCN	1540	2900	1480	3210	1780	3200	1530	2920	–	–	1780	3210	1750	3170	1800	5040	1530	3090	1780	3170
Cc1cc2nc3c4ccccc4n(CCN(C)C)c3nc2cc1C	1430	2860	1360	8850	1610	3470	1770	10400	1700	3190	1390	9840	2330	12300	1550	10700	2550	8940	1430	2820
COc1cnc2c(c1)C(=O)c1c-2n(CCCN2CCN(CCO)CC2)c(=O)c2cc([N+](=O)[O-])ccc12	794	19700	13300	31000	1970	4660	1180	2670	1440	2780	533	2050	2380	12400	–	–	1790	4420	1220	3160
